Results on one compound are retold here after patent publication US20240075050A1, “Methods and Compositions for Treating Leucine Rich Repeat Kinase 2 (LRRK2)-Associated Disorder or Condition” (University of Connecticut, priority 2022, published 2024).

Structures are written as SMILES.

Experiment [1] has as its system mouse primary cortical neurons. Kind of experiment: Primary neuronal viability assay, LRRK2-induced neuronal toxicity. Type of experiment: cell-based. The settings on record: 1 mM AICAr. The method, then: Primary neuronal cultures and viability assay. Primary cortical neuronal cultures were prepared from embryonic day 15-16 CD1 fetal mice (Charles River)^1. Briefly, cortices were dissected and dissociated by Trypsin (Invitrogen). The cells were seeded into 24-well plates pre-coated with poly-L-ornithine (Sigma) and were maintained in Neurobasal medium (Gibco) supplemented with B27 supplement (Gibco) and L-glutamine. The glial cells were inhibited by adding 5-fluoro-20-deoxyuridine (5F2DU, 30 μM, Sigma) at days in vitro (DIV) 4. To assess ATIC in LRRK2-induced toxicity, neurons were first infected with lentiviruses of ATIC-shRNA #6 or control-shRNA at DIV 3, and MYC-LRRK2, […] were co-transfected at a plasmid ratio of 10:1 into neurons at DIV 5 using Lipofectamine 2000 reagent (Invitrogen). […] Fixed cells are washed with PBS, permeabilized and blocked for 1 hour with PBS containing 5% goat serum and 0.3% Triton X-100, then detected with rabbit anti-GFP antibody followed by AlexaFluor-488 anti-rabbit IgG antibody. […] For each independent experiment, the percent viability of GFP-positive neurons (n>100) was determined and normalized to the control neurons transfected with pEGFP-N1 plus pcDNA3.1 empty vector.

A further experiment concerns LRRK2 mRNA. Kind of experiment: LRRK2 mRNA stability assay in the presence of actinomycin D. Type of experiment: cell-based, human. The settings on record: SH-SY5Y, 2 mM AICAr, 24-h period, 10 μg/ml actinomycin D. The method, then: FIGS. 3A-3J depict that AICAr regulates LRRK2 at mRNA level and through a specific region. FIGS. 3A and 3B depict the LRRK2 protein levels upon treatment of AICAr together with a proteasome inhibitor MG132 or an autophagy inhibitor chloroquine (CQ). […] LRRK2 expression levels were analyzed by Western blot. Images were quantified by ImageJ software. Data are mean±SEM, n=3 independent experiments. ***p<0.001, ****p<0.0001 by one-way ANOVA followed by a Tukey's post hoc test. FIG. 3C depicts the LRRK2 and GBA mRNA levels upon AICAr treatment. SH-SY5Y cells were treated with or without 2 mM AICAr for 24 hours. Total RNA was extracted. LRRK2 and GBA mRNA levels were analyzed by real-time PCR. Data are mean±SEM, n=4 independent experiments. **p<0.01 by Student's t tests. ns: not statistically significant. […] LRRK2 mRNA levels were analyzed by real-time PCR. […] LRRK2 expression levels were analyzed by Western blot. Images were quantified by ImageJ software. […] LRRK2 deletion mutant expression levels were analyzed by Western blot. FIGS. 3I and 3J depict that the specific region (2221-3927 bp) of the synthesized Flag-LRRK2 cDNA was replaced with the native sequence and the response of this chimeric LRRK2 cDNA expression to AICAr treatment was analyzed by Western blot. Images were quantified by ImageJ software. […]

Regarding `NC(=O)c1ncn([C@@H]2O[C@H](CO)[C@@H](O)[C@H]2O)c1N` [AICAr, 5-aminoimidazole-4-carboxamide riboside], the “LRRK2 GS mutant induced neuronal toxicity” value in experiment [1] (mouse primary neurons transfected with MYC-LRRK2 G2019S and eGFP) is given as “significantly rescued”. Further, the “overexpression of LRRK2-WT induced neuronal toxicity” value in experiment [1] (mouse primary neurons transfected with MYC-LRRK2 WT and eGFP) is recorded as “significantly rescued”. Besides, the “acceleration of LRRK2 mRNA decay” value with LRRK2 mRNA is “about twofold”.
